B1: Aspartate aminotransferase from Corynebacterium glutamicum ATCC13032 (enzyme, Corynebacterium glutamicum ATCC 13032)
chain: MSSVSLQDFDAERIGLFHEDIKRKFDELKSKNLKLDLTRGKPSSEQLDFADELLALPGKGDFKAADGTDVRNYGGLDGIVDIRQIWADLLGVPVEQVLAGDASSLNIMFDVISWSYIFGNNDSVQPWSKEETVKWICPVPGYDRHFSITERFGFEMISVPMNEDGPDMDAVEELVKNPQVKGMWVVPVFSNPTGFTVTEDVAKRLSAMETAAPDFRVVWDNAYAVHTLTDEFPEVIDIVGLGEAAGNPNRFWAFTSTSKITLAGAGVSFFLTSAENRKWYTGHAGIRGIGPNKVNQLAHARYFGDAEGVRAVMRKHAASLAPKFNKVLEILDSRLAEYGVAQWTVPAGGYFISLDVVPGTASRVAELAKEAGIALTGAGSSYPLRQDPENKNLRLAPSLPPVEELEVAMDGVATCVLLAAAEHYAN
notes: Aspartate aminotransferase (CgAspAT) of Corynebacterium glutamicum ATCC 13032, gene amplified from chromosomal DNA and cloned into pET30a; residues up to Asn426 are named in the structure; also called CgAspAT; AspAT; source: E. coli BL21(DE3)-T1R, purified (Ni-NTA, size-exclusion chromatography on Sephacryl S-300)

How the values were obtained:
CgAspAT [1] = molecular target: T1, CgAspAT (Corynebacterium glutamicum, UniProt Q8NTR2); assay: malate dehydrogenase-coupled NADH oxidation, […] nm; format: biochemical; details: 300 mM L-aspartate, 50 mM α-ketoglutarate, 100 mM Tris-HCl pH 8.0, 303 K, no added PLP
T1 construct: gene Cgl0240; pET30a, Ni-NTA purified, E. coli BL21(DE3)-T1R host; about 90 kDa homodimer; core domain Leu56-Gly304, C-terminal residue named Asn426

CgAspAT [2] = molecular target: T1, CgAspAT; assay: X-ray crystal structure, […] Å; format: binding; details: copurified, no PLP added; 28% PEG 3350, 200 mM ammonium citrate dibasic; near Lys259 (known aldimine lysine, covalent bond not stated for this structure)
[3] = molecular target: the molecule itself; assay: SEC; Sephacryl S-300 prep-grade column (320 ml), 40 mM Tris-HCl pH 8.0, 277 K; last step of the purification; dimer of the protein with itself

Row | Molecule | malate dehydrogenase-coupled NADH oxidation, 340 nm (CgAspAT [1]) | also measured
1 | O=C(O)CCC(=O)C(=O)O [α-ketoglutarate] | CgAspAT enzymes catalyze L-asparate and α-ketoglutarate to L-glutamate and oxaloacetate | 
2 | N[C@@H](CC(=O)O)C(=O)O [L-aspartate] | CgAspAT enzymes catalyze L-asparate and α-ketoglutarate to L-glutamate and oxaloacetate | 
3 | Cc1ncc(COP(=O)(O)O)c(C=O)c1O [PLP] |  | X-ray crystal structure, 2.0 Å (CgAspAT [2]): we observed the electron density for the PLP cofactor in our structure without adding it
4 | B1 |  | stoichiometry N [3]: 2
